In patent US20240041042A1, “1-(PYRIDYL)-5-AZINYLPYRAZOLE DERIVATIVES, AND THEIR USE FOR CONTROL OF UNDESIRED PLANT GROWTH” (Bayer Aktiengesellschaft, priority 2020, published 2024):

How the values were obtained:
Format in all cases: in vivo
[1] = test system: Abutilon theophrasti (ABUTH); assay: Pre-emergence herbicidal action against ABUTH; details: Dosage column 320 g/ha (title prints 3200 g/ha); scored visually after about 3 weeks; 100% = plants have died
How it was run: (§1)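 Read-out is visual percent damage relative to untreated pots, with 100% meaning dead plants and 0% meaning no difference, assessed roughly three weeks after treatment. Compounds were applied pre-emergence to the covering soil at up to 320 g/ha.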

[2] = test system: Alopecurus myosuroides (ALOMY); assay: Pre-emergence herbicidal action against ALOMY; details: scored visually after about 3 weeks, 100% = plants have died
How it was run: as §1

[3] = test system: Amaranthus retroflexus (AMARE); assay: Pre-emergence herbicidal action against AMARE; details: visual scoring after about 3 weeks vs untreated controls
How it was run: as §1

Avena fatua (AVEFA) [4] = assay: Pre-emergence herbicidal action against AVEFA; details: 320 g/ha, visual scoring after about 3 weeks vs untreated controls
How it was run: as §1

[5] = test system: Digitaria sanguinalis (DIGSA); assay: Pre-emergence herbicidal action against DIGSA
How it was run: as §1

[6] = test system: Echinochloa crus-galli (ECHCG); assay: Pre-emergence herbicidal action against ECHCG
How it was run: as §1

Lolium rigidum (LOLRI) [7] = assay: Pre-emergence herbicidal action against LOLRI
How it was run: as §1

[8] = test system: Matricaria inodora (MATIN); assay: Pre-emergence herbicidal action against MATIN
How it was run: as §1

[9] = test system: Pharbitis purpurea (PHBPU); assay: Pre-emergence herbicidal action against PHBPU
How it was run: as §1

[10] = test system: Polygonum convolvulus (POLCO); assay: Pre-emergence herbicidal action against POLCO
How it was run: as §1

Setaria viridis (SETVI) [11] = assay: Pre-emergence herbicidal action against SETVI
How it was run: as §1

[12] = test system: Verconica persica (VERPE); assay: Pre-emergence herbicidal action against VERPE
How it was run: as §1

Viola tricolor (VIOTR) [13] = assay: Pre-emergence herbicidal action against VIOTR
How it was run: as §1

Avena fatua (AVEFA) [14] = assay: Post-emergence herbicidal action against AVEFA; details: visual rating about 3 weeks after treatment
How it was run: (§2)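 Greenhouse plants sprayed at the one-leaf stage, 2–3 weeks after sowing, with WP or EC formulations plus 0.5% additive at 600 l/ha water. Activity rated visually after about 3 weeks versus untreated controls (100% = dead, 0% = like control), at 320 g/ha or lower.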

[15] = test system: Digitaria sanguinalis (DIGSA); assay: Post-emergence herbicidal action against DIGSA; details: visual rating about 3 weeks after treatment
How it was run: as §2

[16] = test system: Echinochloa crus-galli (ECHCG); assay: Post-emergence herbicidal action against ECHCG
How it was run: as §2

Lolium rigidum (LOLRI) [17] = assay: Post-emergence herbicidal action against LOLRI
How it was run: as §2

[18] = test system: Matricaria inodora (MATIN); assay: Post-emergence herbicidal action against MATIN; details: dosage 320 g/ha
How it was run: as §2

[19] = test system: Pharbitis purpurea (PHBPU); assay: Post-emergence herbicidal action against PHBPU
How it was run: as §2

[20] = test system: Polygonum convolvulus (POLCO); assay: Post-emergence herbicidal action against POLCO; details: dosage 320 g/ha
How it was run: as §2

Setaria viridis (SETVI) [21] = assay: Post-emergence herbicidal action against SETVI
How it was run: as §2

Viola tricolor (VIOTR) [22] = assay: Post-emergence herbicidal action against VIOTR
How it was run: as §2

[23] = test system: Abutilon theophrasti (ABUTH); assay: Post-emergence herbicidal action against ABUTH; details: 320 g/ha, visual rating about 3 weeks after treatment vs untreated controls (100% = plants have died, 0% = like control plants)
How it was run: as §2

[24] = test system: Alopecurus myosuroides (ALOMY); assay: Post-emergence herbicidal action against ALOMY; details: visual rating about 3 weeks after treatment vs untreated controls (100% = plants have died, 0% = like control plants)
How it was run: as §2

[25] = test system: Verconica persica (VERPE); assay: Post-emergence herbicidal action against VERPE
How it was run: as §2

Oryza sativa (ORYSA) = details: crop plant compatibility, 80 g/ha, effect in comparison to untreated controls
How it was run: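 Test crops were treated 2 to 3 weeks after sowing, once they reached one leaf, by spraying compound in water with 0.5% additive at 600 l/ha. Visual scoring compared them with untreated controls roughly 3 weeks on, and appendices a, b and c denote different doses.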

[26] = 80 g/ha, visual scoring after about 3 weeks vs untreated controls

Row | Structure (SMILES) | Pre-emergence action against ABUTH [1] | Pre-emergence action against ALOMY ([2]; 80 g/ha) | Pre-emergence action against ALOMY ([2]; 320 g/ha) | Pre-emergence action against AMARE in % ([3]; 80 g/ha) | Pre-emergence action against AMARE in % ([3]; 320 g/ha) | Pre-emergence action against AVEFA in % (Avena fatua (AVEFA) [4]) | Pre-emergence action against DIGSA in % [5, 26] | Pre-emergence action against DIGSA in % ([5]; dosage 320 g/ha) | Pre-emergence action against ECHCG in % ([6]; dosage 320 g/ha) | Pre-emergence action against LOLRI in % (Lolium rigidum (LOLRI) [7]; dosage 320 g/ha) | Pre-emergence action against MATIN in % ([8]; dosage 80 g/ha) | Pre-emergence action against MATIN in % ([8]; dosage 320 g/ha) | Pre-emergence action against PHBPU in % ([9]; dosage 320 g/ha) | Pre-emergence action against POLCO in % ([10]; dosage 320 g/ha) | Pre-emergence action against SETVI in % (Setaria viridis (SETVI) [11]; dosage 80 g/ha) | Pre-emergence action against SETVI in % (Setaria viridis (SETVI) [11]; dosage 320 g/ha) | Pre-emergence action against VERPE in % ([12]; dosage 320 g/ha) | Pre-emergence action against VIOTR in % (Viola tricolor (VIOTR) [13]; 320 g/ha, Viola tricolor) | Pre-emergence action against VIOTR in % (Viola tricolor (VIOTR) [13]; dosage 80 g/ha) | Post-emergence action against AVEFA in % (Avena fatua (AVEFA) [14]; 320 g/ha) | further results
1 | COC(=O)[C@@H](C)Oc1nn(-c2nc(F)ccc2F)c(-c2cncc(F)c2)c1Cl [Example I-154] | 90% | 80% | 90% | 90% | 100% | 80% | 90% | 100% | 100% | 100% | 90% | 100% | 90% | 90% | 90% | 100% | 100% | 100% | 100% | 80% | Pre-emergence action against ECHCG in % ([6]; dosage 80 g/ha): 90%; Pre-emergence action against LOLRI in % (Lolium rigidum (LOLRI) [7]; dosage 80 g/ha): 90%; Pre-emergence action against PHBPU in % ([9]; dosage 80 g/ha): 80%; Post-emergence action against DIGSA in % ([15]; 80 g/ha): 80%; Post-emergence action against DIGSA in % ([15]; 320 g/ha): 90%; Post-emergence action against ECHCG in % ([16]; dosage 80 g/ha): 80%; Post-emergence action against ECHCG in % ([16]; dosage 320 g/ha): 80%; Post-emergence action against LOLRI in % (Lolium rigidum (LOLRI) [17]; dosage 80 g/ha): 80%; Post-emergence action against LOLRI in % (Lolium rigidum (LOLRI) [17]; dosage 320 g/ha): 90%; Post-emergence action against MATIN in % [18]: 80%; Post-emergence action against PHBPU in % ([19]; dosage 80 g/ha): 80%; Post-emergence action against PHBPU in % ([19]; dosage 320 g/ha): 90%; Post-emergence action against POLCO in % [20]: 80%; Post-emergence action against SETVI in % (Setaria viridis (SETVI) [21]; dosage 320 g/ha): 80%; Post-emergence action against VIOTR in % (Viola tricolor (VIOTR) [22]; 320 g/ha): 80%
2 | C[C@@H](Oc1nn(-c2nc(F)ccc2F)c(-c2ccc(F)nc2)c1C1CC1)C(=O)O [Example I-296] | 80% | 80% | 100% | 80% | 90% | 90% | 90% | 100% | 100% | 100% | 80% | 90% | 90% | 90% | 90% | 100% | 100% | 100% | 90% | 80% | Pre-emergence action against POLCO in % ([10]; dosage 80 g/ha): 80%; Pre-emergence action against VERPE in % ([12]; dosage 80 g/ha): 90%; Post-emergence action against ABUTH in % [23]: 80%; Post-emergence action against ALOMY in % ([24]; 80 g/ha): 80%; Post-emergence action against ALOMY in % ([24]; 320 g/ha): 90%; Post-emergence action against AVEFA in % (Avena fatua (AVEFA) [14]; 80 g/ha): 80%; Post-emergence action against DIGSA in % ([15]; 80 g/ha): 80%; Post-emergence action against DIGSA in % ([15]; 320 g/ha): 90%; Post-emergence action against ECHCG in % ([16]; dosage 80 g/ha): 80%; Post-emergence action against ECHCG in % ([16]; dosage 320 g/ha): 80%; Post-emergence action against LOLRI in % (Lolium rigidum (LOLRI) [17]; dosage 80 g/ha): 80%; Post-emergence action against LOLRI in % (Lolium rigidum (LOLRI) [17]; dosage 320 g/ha): 80%; Post-emergence action against PHBPU in % ([19]; dosage 320 g/ha): 90%; Post-emergence action against POLCO in % [20]: 80%; Post-emergence action against SETVI in % (Setaria viridis (SETVI) [21]; dosage 320 g/ha): 80%; Post-emergence action against VERPE in % ([25]; 320 g/ha, VERPE): 80%; Post-emergence action against VIOTR in % (Viola tricolor (VIOTR) [22]; 80 g/ha): 80%; Post-emergence action against VIOTR in % (Viola tricolor (VIOTR) [22]; 320 g/ha): 80%; Post-emergence action against ORYSA in % (Oryza sativa (ORYSA)): 0%
3 | COC(=O)[C@H](C)COC(=O)COc1nn(-c2ccccn2)c(-c2cncc(F)c2)c1Br [Example I-195] | 80% | 80% | 90% | 90% | 100% | 90% | 90% | 100% | 100% | 100% | 90% | 90% | 90% | 100% | 100% | 100% | 100% | 100% | 80% | 90% | Pre-emergence action against LOLRI in % (Lolium rigidum (LOLRI) [7]; dosage 80 g/ha): 80%; Pre-emergence action against POLCO in % ([10]; dosage 80 g/ha): 90%; Post-emergence action against ABUTH in % [23]: 90%; Post-emergence action against ALOMY in % ([24]; 80 g/ha): 80%; Post-emergence action against ALOMY in % ([24]; 320 g/ha): 90%; Post-emergence action against DIGSA in % ([15]; 80 g/ha): 90%; Post-emergence action against DIGSA in % ([15]; 320 g/ha): 90%; Post-emergence action against ECHCG in % ([16]; dosage 320 g/ha): 80%; Post-emergence action against LOLRI in % (Lolium rigidum (LOLRI) [17]; dosage 320 g/ha): 80%; Post-emergence action against PHBPU in % ([19]; dosage 80 g/ha): 90%; Post-emergence action against PHBPU in % ([19]; dosage 320 g/ha): 90%; Post-emergence action against POLCO in % [20]: 80%; Post-emergence action against SETVI in % (Setaria viridis (SETVI) [21]; dosage 80 g/ha): 90%; Post-emergence action against SETVI in % (Setaria viridis (SETVI) [21]; dosage 320 g/ha): 90%; Post-emergence action against VERPE in % ([25]; 320 g/ha, VERPE): 80%; Post-emergence action against VERPE in % ([25]; dosage 80 g/ha): 80%; Post-emergence action against VIOTR in % (Viola tricolor (VIOTR) [22]; 80 g/ha): 80%; Post-emergence action against VIOTR in % (Viola tricolor (VIOTR) [22]; 320 g/ha): 80%
